# Assay results taken from US20050112573A1, “Method of detecting toxic substance” (priority 2001, published 2005).
# Test system: yeast genes (level of expressed mRNA)
# Experiment: DNA chip analysis of expressed mRNA of yeast genes after 2 h culture with a toxic chemical substance
# Type: cell-based, Saccharomyces cerevisiae S288C
# Conditions: for The level of expressed mRNA in the presence of chemical substance/ (ratio to absence of chemical substance): stress protein genes, DNA chip; for The level of expressed mRNA in the presence of chemical substance/ in its absence, gene YPR184W: yeast gene YPR184W
# Description: Yeast (Saccharomyces cerevtisiae S288C (α SUC2mal mel gap2 CUP1)) were cultured at 25° C. on YPD medium (yeast extract 1%, polypepton 2%, glucose 2%). One of toxic chemical substances was added to the cell at logarithmic growth phase, and the cell was further cultured for two hours. Cell was cultured without any chemical substance in the same condition, and was used as control. Concentrations of the chemical substances were defined to inhibit the growth of the yeast but not lead to death.
# After the completion of cultivation, the culture was centrifuged to collect the cells. To the cells, sodium acetate buffer (50 mM sodium acetate, 10 mM EDTA, 1% SDS) was added, and the mixture was shaken at 65° C. for five minutes, followed by returning to room temperature, and obtaining the supernatant, which procedure was repeated two times. To the supernatant, ½ amount of a solution of phenol/chloroform was added, and the mixture was centrifuged to give a supernatant, which was added with an equal amount of chloroform, and the mixture was centrifuged to give a supernatant. To the supernatant, an equal amount of isopropanol containing 0.3 M sodium acetate was added, and the mixture was allowed to stand at room temperature for 30 minutes, after which the mixture was centrifuged to give a sediment of the whole RNAs. Seventy % ethanol was added to the sediment, and the mixture was again centrifuged to give a sediment, which was then dried and dissolved in water. mRNA was isolated from the whole RNAs as followings. In view of the fact that a poly A chain is attached to the 3′ terminus of mRNA, a polynucleotide having a poly T structure which was immobilized on the surface of latex beads was used to trap the mRNA, and then the mRNA was washed and eluted with spine column (Oligotex-dT30<Super>mRNA Purification Kit, Takara). Reverse transcription of the mRNA was conducted with a reverse transcriptase (Super Script II Reverse Transcriptase; catalogue No. 18064-014, GibcoBRL) using fluorescence-labeled nucleotides to give cDNAs that were introduced with Cy3-dUTP or Cy5-dUTP during the reverse transcription.
# The labeled cDNAs were dissolved in TE buffer (10 mM Tris-HCl/1 mM EDTA, pH8.0), and the solution was dropped on the DNA chip containing the whole genes of yeast (DNA Chip Research Inc. Japan) so that the cDNAs were hybridized on the DNA chip at 65° C. for over 12 hours. The fluoresces intensity of the DNA chip was read with a scanner, and the ratio relative to the fluorescence intensity resulting from the absence of chemical substance was estimated as the following, which is shown in Tables 1 to 9: [formula]
# In the Tables, “Intensity” indicated in the rightmost column is a value of the level of expressed mRNA of each gene in control cells as divided by the average level of the expressions of the whole genes.
compound,measurement,setting,value
"C=CC=O [(14), acrolein]",The level of expressed mRNA in the presence of chemical substance/The level of expressed mRNA in the absence of chemical substance,yeast gene YNL006W,0.8
same,The level of expressed mRNA in the presence of chemical substance/The level of expressed mRNA in the absence of chemical substance,yeast gene YNL007C,0.4
same,"The level of expressed mRNA in the presence of chemical substance/ (in its absence), gene YNL025C","yeast gene YNL025C, ratio of DNA chip fluorescence intensity to that without chemical substance",1.2
same,The level of expressed mRNA in the presence of chemical substance/ (ratio to absence of chemical substance),yeast gene YNL064C,0.8
same,"The level of expressed mRNA in the presence of chemical substance/ (ratio to absence), gene YNL073W","yeast gene YNL073W, mitochondria-located protein genes, 2 h culture with chemical",0.7
same,The level of expressed mRNA in the presence of chemical substance/The level of expressed mRNA in the absence of chemical substance,yeast gene YNL093W,1.1
same,"The level of expressed mRNA in the presence of chemical substance/ (in its absence), gene YNL192W","yeast gene YNL192W, ratio of DNA chip fluorescence intensity to that without chemical substance",0.7
same,The level of expressed mRNA in the presence of chemical substance/The level of expressed mRNA in the absence of chemical substance,yeast gene YNL333W,1.9
same,The level of expressed mRNA in the presence of chemical substance/The level of expressed mRNA in the absence of chemical substance,yeast gene YNR010W,1.3
same,The level of expressed mRNA in the presence of chemical substance/The level of expressed mRNA in the absence of chemical substance,yeast gene YNR069C,2.1
same,"The level of expressed mRNA in the presence of chemical substance/ (in its absence), gene YNR072W","yeast gene YNR072W, ratio of DNA chip fluorescence intensity to that without chemical substance",1.0
same,The level of expressed mRNA in the presence of chemical substance/ (ratio to absence of chemical substance),yeast gene YNR076W,0.8
same,The level of expressed mRNA in the presence of chemical substance/The level of expressed mRNA in the absence of chemical substance,yeast gene YOL013C,0.9
same,"The level of expressed mRNA in the presence of chemical substance/ (ratio to absence), gene YOL096C","yeast gene YOL096C, mitochondria-located protein genes, 2 h culture with chemical",1.4
same,"The level of expressed mRNA in the presence of chemical substance/ (in its absence), gene YOL096C","yeast gene YOL096C, ratio of DNA chip fluorescence intensity to that without chemical substance",1.4
same,"The level of expressed mRNA in the presence of chemical substance/ (in its absence), gene YOL108C","yeast gene YOL108C, ratio of DNA chip fluorescence intensity to that without chemical substance",0.9
same,"The level of expressed mRNA in the presence of chemical substance/ (in its absence), gene YOL116W","yeast gene YOL116W, ratio of DNA chip fluorescence intensity to that without chemical substance",0.9
same,The level of expressed mRNA in the presence of chemical substance/ (ratio to absence of chemical substance),yeast gene YOL161C,0.9
same,The level of expressed mRNA in the presence of chemical substance/The level of expressed mRNA in the absence of chemical substance,yeast gene YOL164W,1.3
same,The level of expressed mRNA in the presence of chemical substance/ (ratio to absence of chemical substance),yeast gene YOR008C,0.9
same,The level of expressed mRNA in the presence of chemical substance/ (ratio to absence of chemical substance),yeast gene YOR009W,0.7
same,The level of expressed mRNA in the presence of chemical substance/ (ratio to absence of chemical substance),yeast gene YOR010C,0.4
same,The level of expressed mRNA in the presence of chemical substance/The level of expressed mRNA in the absence of chemical substance,yeast gene YOR036W,1.2
same,"The level of expressed mRNA in the presence of chemical substance/ (in its absence), gene YOR103C","yeast gene YOR103C, ratio of DNA chip fluorescence intensity to that without chemical substance",1.2
same,The level of expressed mRNA in the presence of chemical substance/The level of expressed mRNA in the absence of chemical substance,yeast gene YOR117W,1.0
same,The level of expressed mRNA in the presence of chemical substance/The level of expressed mRNA in the absence of chemical substance,yeast gene YOR124C,0.8
same,The level of expressed mRNA in the presence of chemical substance/The level of expressed mRNA in the absence of chemical substance,yeast gene YOR132W,0.7
same,The level of expressed mRNA in the presence of chemical substance/The level of expressed mRNA in the absence of chemical substance,yeast gene YOR157C,2.2
same,"The level of expressed mRNA in the presence of chemical substance/ (in its absence), gene YOR180C","yeast gene YOR180C, ratio of DNA chip fluorescence intensity to that without chemical substance",1.0
same,The level of expressed mRNA in the presence of chemical substance/The level of expressed mRNA in the absence of chemical substance,yeast gene YOR181W,0.9
same,The level of expressed mRNA in the presence of chemical substance/The level of expressed mRNA in the absence of chemical substance,yeast gene YOR185C,2.1
same,The level of expressed mRNA in the presence of chemical substance/The level of expressed mRNA in the absence of chemical substance,yeast gene YOR198C,1.1
same,"The level of expressed mRNA in the presence of chemical substance/ (in its absence), gene YOR251C","yeast gene YOR251C, ratio of DNA chip fluorescence intensity to that without chemical substance",1.1
same,The level of expressed mRNA in the presence of chemical substance/The level of expressed mRNA in the absence of chemical substance,yeast gene YOR259C,1.2
same,The level of expressed mRNA in the presence of chemical substance/The level of expressed mRNA in the absence of chemical substance,yeast gene YOR261C,1.8
same,The level of expressed mRNA in the presence of chemical substance/The level of expressed mRNA in the absence of chemical substance,yeast gene YOR288C,0.8
same,"The level of expressed mRNA in the presence of chemical substance/ (ratio to absence), gene YOR316C","yeast gene YOR316C, mitochondria-located protein genes, 2 h culture with chemical",1.0
same,"The level of expressed mRNA in the presence of chemical substance/ (in its absence), gene YOR348C","yeast gene YOR348C, ratio of DNA chip fluorescence intensity to that without chemical substance",1.2
same,The level of expressed mRNA in the presence of chemical substance/The level of expressed mRNA in the absence of chemical substance,yeast gene YOR355W,0.6
same,"The level of expressed mRNA in the presence of chemical substance/ (in its absence), gene YOR363C","yeast gene YOR363C, ratio of DNA chip fluorescence intensity to that without chemical substance",0.9
same,The level of expressed mRNA in the presence of chemical substance/The level of expressed mRNA in the absence of chemical substance,yeast gene YOR383C,0.6
same,"The level of expressed mRNA in the presence of chemical substance/ (ratio to absence), gene YPL040C","yeast gene YPL040C, mitochondria-located protein genes, 2 h culture with chemical",1.1
same,The level of expressed mRNA in the presence of chemical substance/ (ratio to absence of chemical substance),yeast gene YPL059W,1.3
same,The level of expressed mRNA in the presence of chemical substance/The level of expressed mRNA in the absence of chemical substance,yeast gene YPL089C,0.8
same,The level of expressed mRNA in the presence of chemical substance/The level of expressed mRNA in the absence of chemical substance,yeast gene YPL109C,1.3
same,"The level of expressed mRNA in the presence of chemical substance/ (ratio to absence), gene YPL134C","yeast gene YPL134C, mitochondria-located protein genes, 2 h culture with chemical",1.4
same,The level of expressed mRNA in the presence of chemical substance/ (ratio to absence of chemical substance),yeast gene YPL140C,1.1
same,"The level of expressed mRNA in the presence of chemical substance/ (in its absence), gene YPL148C","yeast gene YPL148C, ratio of DNA chip fluorescence intensity to that without chemical substance",1.6
same,The level of expressed mRNA in the presence of chemical substance/The level of expressed mRNA in the absence of chemical substance,yeast gene YPL149W,1.0
same,The level of expressed mRNA in the presence of chemical substance/The level of expressed mRNA in the absence of chemical substance,yeast gene YPL154C,0.8
same,The level of expressed mRNA in the presence of chemical substance/ (ratio to absence of chemical substance),yeast gene YPL194W,1.1
same,The level of expressed mRNA in the presence of chemical substance/ (ratio to absence of chemical substance),yeast gene YPR005C,1.3
same,The level of expressed mRNA in the presence of chemical substance/The level of expressed mRNA in the absence of chemical substance,yeast gene YPR103W,1.8
same,The level of expressed mRNA in the presence of chemical substance/The level of expressed mRNA in the absence of chemical substance,yeast gene YPR108W,1.0
same,"The level of expressed mRNA in the presence of chemical substance/ (in its absence), gene YPR165W","yeast gene YPR165W, ratio of DNA chip fluorescence intensity to that without chemical substance",1.0
same,"The level of expressed mRNA in the presence of chemical substance/ in its absence, gene YPR184W","energy system protein genes, 2 h culture with the chemical, ratio to control without chemical",1.3
same,"The level of expressed mRNA in the presence of chemical substance/ in its absence, gene YPR184W",ratio of DNA chip fluorescence intensity to that without chemical substance,1.3
